Experimental data: US6737383B1, “Herbicidal oxadiazolidines” (priority 1999, dated 2004)

How the values were obtained:
tall mallow = experiment: Test D tall mallow; assay type: in vivo, Malva sylvestris; conditions: Preemergence, 0 to 100 scale
In short: (§1)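 Weed seeds planted in sandy loam; species kept apart in individual pots or compartments. Preemergence tests: treatment to soil surface within one day. Greenhouse growth, then visual injury scoring at 14–21 days (0–100).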

itchgrass = experiment: Test D itchgrass; assay type: in vivo, Rottboellia exaltata; conditions: Preemergence, 0 to 100 scale
In short: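 Scoring used a 0–100 visual injury scale, with 0 meaning no effect and 100 complete control, assessed 14–21 days after application alongside untreated pots. Preemergence treatments went onto sandy loam surfaces of separately potted seeds within a day of sowing.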

purple nutsedge = experiment: Test D purple nutsedge; assay type: in vivo, Cyperus rotundus; conditions: Preemergence, 0 to 100 scale
In short: as §1

pitted morningglory = experiment: Test D pitted morningglory; assay type: in vivo, Ipomoea lacunosa; conditions: Preemergence, 0 to 100 scale
In short: as §1

Green foxtail [1] = experiment: Test D green foxtail; assay type: in vivo
In short: as §1

surinam grass = experiment: Test D surinam grass; assay type: in vivo, Brachiaria decumbens
In short: as §1

common pursiane = experiment: Test D common purslane; assay type: in vivo, Portulaca oleracea; conditions: Preemergence, 0 to 100 scale
In short: as §1

Johnson grass = experiment: Test D Johnson grass; assay type: in vivo, Sorghum halepense; conditions: Preemergence, 0 to 100 scale
In short: as §1

guineagrass = experiment: Test D guineagrass; assay type: in vivo, Panicum maximum; conditions: Preemergence, 0 to 100 scale
In short: as §1

large crabgrass = experiment: Test D large crabgrass; assay type: in vivo, Digitaria sanguinalis; conditions: Preemergence, 0 to 100 scale
In short: as §1

sandbur = experiment: Test D sandbur; assay type: in vivo, Cenchrus echinatus; conditions: Preemergence, 0 to 100 scale
In short: as §1

Spanishneedles = experiment: Test D Spanishneedles; assay type: in vivo, Bidens bipinnata; conditions: Preemergence, 0 to 100 scale
In short: as §1

Green foxtail [2] = experiment: Test D green foxtail; assay type: in vivo; conditions: Preemergence, 0 to 100 scale
In short: as §1

common groundsel = experiment: Test D common groundsel; assay type: in vivo, Senecio vulgaris; conditions: Preemergence, 0 to 100 scale
In short: as §1

bermuda-grass = experiment: Test D bermudagrass; assay type: in vivo, Cynodon dactylon; conditions: Preemergence, 0 to 100 scale
In short: as §1

[3] = Rate 16 g/ha, 0 no injury, 100 complete control
[4] = Rate 32 g/ha, 0 no injury, 100 complete control
[5] = Rate 64 g/ha, 0 no injury, 100 complete control
[6] = Rate 125 g/ha, 0 no injury, 100 complete control
[7] = Preemergence; Rate 16 g/ha; 0 to 100 scale, 0 no injury, 100 complete control
[8] = Preemergence; Rate 32 g/ha; 0 to 100 scale, 0 no injury, 100 complete control
[9] = Rate 16 g/ha; Preemergence; 0 to 100 scale, 0 no injury, 100 complete control
[10] = Rate 32 g/ha; Preemergence; 0 to 100 scale, 0 no injury, 100 complete control
[11] = Rate 64 g/ha, Preemergence; 0 to 100 scale, 0 no injury, 100 complete control
[12] = Rate 125 g/ha, Preemergence; 0 to 100 scale, 0 no injury, 100 complete control
[13] = Rate 250 g/ha; Preemergence; 0 to 100 scale
[14] = Rate 500 g/ha, Preemergence; 0 to 100 scale
[15] = Rate 500 g/ha; Preemergence; 0 to 100 scale

CC(C)N(C(=O)n1oc(=O)n(Cc2ccccc2)c1=O)c1ccc(F)cc1 [Compound 78]
98: Plant response rating, Surinam grass (surinam grass; [15]) | Plant response rating, Large crabgrass (large crabgrass; [5]) | Plant response rating, Bermudagrass (bermuda-grass; [6])
80: Plant response rating, Sandbur (sandbur; Rate 500 g/ha)
96: Plant response rating, Surinam grass (surinam grass; [14])
20: Plant response rating, Itchgrass (itchgrass; Rate 500 g/ha) | Surinam grass plant response rating (surinam grass; [11]) | Plant response rating, Johnsongrass (Johnson grass; Rate 250 g/ha) | Plant response rating, Johnsongrass (Johnson grass; Rate 500 g/ha) | Plant response rating, Guineagrass (guineagrass; [3]) | Plant response rating, Guineagrass (guineagrass; [4])
90: Plant response rating, Bermudagrass (bermuda-grass; [5])
30: Surinam grass plant response rating (surinam grass; [12])
100: Green foxtail plant response rating (Green foxtail [1]; [12]) | Plant response rating, Green foxtail (Green foxtail [1]; [12]) | Plant response rating, Green foxtail (Green foxtail [1]; [13]) | Plant response rating, Green foxtail (Green foxtail [1]; [14]) | Plant response rating, Guineagrass (guineagrass; Rate 250 g/ha) | Plant response rating, Guineagrass (guineagrass; Rate 500 g/ha) | Plant response rating, Large crabgrass (large crabgrass; [6]) | Plant response rating, Large crabgrass (large crabgrass; Rate 250 g/ha) | Plant response rating, Large crabgrass (large crabgrass; Rate 500 g/ha) | Plant response rating, Green foxtail (Green foxtail [2]; Rate 250 g/ha) | Plant response rating, Green foxtail (Green foxtail [2]; Rate 500 g/ha) | Plant response rating, Bermudagrass (bermuda-grass; Rate 250 g/ha) | Plant response rating, Bermudagrass (bermuda-grass; Rate 500 g/ha)
85: Green foxtail plant response rating (Green foxtail [1]; [11]) | Plant response rating, Green foxtail (Green foxtail [1]; [11]) | Plant response rating, Surinam grass (surinam grass; [13]) | Plant response rating, Guineagrass (guineagrass; [6]) | Plant response rating, Bermudagrass (bermuda-grass; [4])
65: Plant response rating, Guineagrass (guineagrass; [5])
10: Plant response rating, Itchgrass (itchgrass; Rate 250 g/ha)
0: Plant response rating, Tall Mallow (tall mallow; [3]) | Plant response rating, Tall Mallow (tall mallow; [4]) | Tall Mallow plant response rating (tall mallow; [5]) | Tall Mallow plant response rating (tall mallow; [6]) | Plant response rating, Tall Mallow (tall mallow; Rate 250 g/ha) | Plant response rating, Tall Mallow (tall mallow; Rate 500 g/ha) | Plant response rating, Itchgrass (itchgrass; [3]) | Plant response rating, Itchgrass (itchgrass; [4]) | Plant response rating, Itchgrass (itchgrass; [5]) | Plant response rating, Itchgrass (itchgrass; [6]) | Plant response rating, Purple nutsedge (purple nutsedge; [3]) | Plant response rating, Purple nutsedge (purple nutsedge; [4]) | Purple nutsedge plant response rating (purple nutsedge; [5]) | Purple nutsedge plant response rating (purple nutsedge; [6]) | Plant response rating, Purple nutsedge (purple nutsedge; Rate 250 g/ha) | Plant response rating, Purple nutsedge (purple nutsedge; Rate 500 g/ha) | Plant response rating, P. morninglory (pitted morningglory; [3]) | Plant response rating, P. morninglory (pitted morningglory; [4]) | Plant response rating, P. morninglory (pitted morningglory; [5]) | Plant response rating, P. morninglory (pitted morningglory; [6]) | Plant response rating, P. morninglory (pitted morningglory; Rate 250 g/ha) | Plant response rating, P. morninglory (pitted morningglory; Rate 500 g/ha) | Plant response rating, Green foxtail (Green foxtail [1]; [7]) | Plant response rating, Green foxtail (Green foxtail [1]; [9]) | Plant response rating, Surinam grass (surinam grass; [9]) | Plant response rating, Surinam grass (surinam grass; [10]) | Plant response rating, C. purslane (common pursiane; [3]) | Plant response rating, C. purslane (common pursiane; [4]) | Plant response rating, C. purslane (common pursiane; [5]) | Plant response rating, C. purslane (common pursiane; [6]) | Plant response rating, C. purslane (common pursiane; Rate 250 g/ha) | Plant response rating, C. purslane (common pursiane; Rate 500 g/ha) | Plant response rating, Johnsongrass (Johnson grass; [3]) | Plant response rating, Johnsongrass (Johnson grass; [4]) | Plant response rating, Johnsongrass (Johnson grass; [5]) | Plant response rating, Johnsongrass (Johnson grass; [6]) | Plant response rating, Large crabgrass (large crabgrass; [3]) | Plant response rating, Sandbur (sandbur; [3]) | Plant response rating, Sandbur (sandbur; [4]) | Sandbur plant response rating (sandbur; [5]) | Sandbur plant response rating (sandbur; [6]) | Plant response rating, Spanishneedles (Spanishneedles; [3]) | Plant response rating, Spanishneedles (Spanishneedles; [4]) | Spanishneedles plant response rating (Spanishneedles; [5]) | Spanishneedles plant response rating (Spanishneedles; [6]) | Plant response rating, Spanishneedles (Spanishneedles; Rate 500 g/ha) | Plant response rating, Com. groundsel (common groundsel; [3]) | Plant response rating, Com. groundsel (common groundsel; [4]) | Plant response rating, Com. groundsel (common groundsel; [5]) | Plant response rating, Com. groundsel (common groundsel; [6]) | Plant response rating, Com. groundsel (common groundsel; Rate 250 g/ha) | Plant response rating, Com. groundsel (common groundsel; Rate 500 g/ha)
40: Plant response rating, Large crabgrass (large crabgrass; [4])
75: Plant response rating, Green foxtail (Green foxtail [1]; [8]) | Plant response rating, Green foxtail (Green foxtail [1]; [10]) | Plant response rating, Sandbur (sandbur; Rate 250 g/ha) | Plant response rating, Bermudagrass (bermuda-grass; [3])

CC(C)N(C(=O)n1oc(=O)n(C2CCCCC2)c1=O)c1ccccc1 [Compound 112]
20: Plant response rating, Tall Mallow (tall mallow; Rate 500 g/ha)
90: Plant response rating, Guineagrass (guineagrass; Rate 250 g/ha)
80: Plant response rating, Itchgrass (itchgrass; Rate 500 g/ha)
85: Green foxtail plant response rating (Green foxtail [1]; [11]) | Plant response rating, Green foxtail (Green foxtail [1]; [11]) | Plant response rating, Bermudagrass (bermuda-grass; [5])
10: Plant response rating, P. morninglory (pitted morningglory; Rate 500 g/ha) | Plant response rating, Large crabgrass (large crabgrass; [3]) | Plant response rating, Large crabgrass (large crabgrass; [4]) | Plant response rating, Large crabgrass (large crabgrass; [5]) | Plant response rating, Spanishneedles (Spanishneedles; Rate 500 g/ha) | Plant response rating, Com. groundsel (common groundsel; Rate 500 g/ha)
40: Plant response rating, Purple nutsedge (purple nutsedge; Rate 500 g/ha) | Plant response rating, Guineagrass (guineagrass; [5])
0: Plant response rating, Tall Mallow (tall mallow; [3]) | Plant response rating, Tall Mallow (tall mallow; [4]) | Tall Mallow plant response rating (tall mallow; [5]) | Plant response rating, Tall Mallow (tall mallow; Rate 250 g/ha) | Plant response rating, Itchgrass (itchgrass; [3]) | Plant response rating, Itchgrass (itchgrass; [4]) | Plant response rating, Itchgrass (itchgrass; [5]) | Plant response rating, Itchgrass (itchgrass; Rate 250 g/ha) | Plant response rating, Purple nutsedge (purple nutsedge; [3]) | Plant response rating, Purple nutsedge (purple nutsedge; [4]) | Purple nutsedge plant response rating (purple nutsedge; [5]) | Plant response rating, Purple nutsedge (purple nutsedge; Rate 250 g/ha) | Plant response rating, P. morninglory (pitted morningglory; [3]) | Plant response rating, P. morninglory (pitted morningglory; [4]) | Plant response rating, P. morninglory (pitted morningglory; [5]) | Plant response rating, P. morninglory (pitted morningglory; Rate 250 g/ha) | Plant response rating, Green foxtail (Green foxtail [1]; [7]) | Plant response rating, Green foxtail (Green foxtail [1]; [8]) | Plant response rating, Green foxtail (Green foxtail [1]; [9]) | Plant response rating, Green foxtail (Green foxtail [1]; [14]) | Plant response rating, Surinam grass (surinam grass; [9]) | Plant response rating, Surinam grass (surinam grass; [10]) | Surinam grass plant response rating (surinam grass; [11]) | Plant response rating, Surinam grass (surinam grass; [13]) | Plant response rating, C. purslane (common pursiane; [3]) | Plant response rating, C. purslane (common pursiane; [4]) | Plant response rating, C. purslane (common pursiane; [5]) | Plant response rating, C. purslane (common pursiane; Rate 250 g/ha) | Plant response rating, C. purslane (common pursiane; Rate 500 g/ha) | Plant response rating, Johnsongrass (Johnson grass; [3]) | Plant response rating, Johnsongrass (Johnson grass; [4]) | Plant response rating, Johnsongrass (Johnson grass; [5]) | Plant response rating, Johnsongrass (Johnson grass; Rate 250 g/ha) | Plant response rating, Guineagrass (guineagrass; [3]) | Plant response rating, Guineagrass (guineagrass; [4]) | Plant response rating, Sandbur (sandbur; [3]) | Plant response rating, Sandbur (sandbur; [4]) | Sandbur plant response rating (sandbur; [5]) | Plant response rating, Sandbur (sandbur; Rate 250 g/ha) | Plant response rating, Spanishneedles (Spanishneedles; [3]) | Plant response rating, Spanishneedles (Spanishneedles; [4]) | Spanishneedles plant response rating (Spanishneedles; [5]) | Plant response rating, Green foxtail (Green foxtail [2]; Rate 500 g/ha) | Plant response rating, Com. groundsel (common groundsel; [3]) | Plant response rating, Com. groundsel (common groundsel; [4]) | Plant response rating, Com. groundsel (common groundsel; [5]) | Plant response rating, Com. groundsel (common groundsel; Rate 250 g/ha)
75: Plant response rating, Bermudagrass (bermuda-grass; [4])
98: Plant response rating, Green foxtail (Green foxtail [1]; [10]) | Plant response rating, Green foxtail (Green foxtail [1]; [13]) | Plant response rating, Surinam grass (surinam grass; [15]) | Plant response rating, Green foxtail (Green foxtail [2]; Rate 250 g/ha) | Plant response rating, Bermudagrass (bermuda-grass; Rate 250 g/ha)
50: Plant response rating, Johnsongrass (Johnson grass; Rate 500 g/ha)
100: Plant response rating, Guineagrass (guineagrass; Rate 500 g/ha) | Plant response rating, Large crabgrass (large crabgrass; Rate 250 g/ha) | Plant response rating, Large crabgrass (large crabgrass; Rate 500 g/ha) | Plant response rating, Sandbur (sandbur; Rate 500 g/ha) | Plant response rating, Bermudagrass (bermuda-grass; Rate 500 g/ha)
60: Plant response rating, Bermudagrass (bermuda-grass; [3])
